Read-outs that look alike come from different tables or passages of the source.
Tests used:
[1] = tested on: apical buds of budded plants; assay: Ploidy increase in buds treated with colchicine, stomata on leaves counted per unit area and compared to the parent; type: in vivo; settings: twice daily for five days minimum
Procedure: Firstly, the plants are budded (on a selected root stock), then they are held in a dormant state and the appropriate chill requirement is given in a cool room (if required). The plants are then removed to a warm environment to prime the bud (which is still dormant). This is continued up to the point at which dormancy is “broken”, cell division is commenced. The bud is then wrapped in absorbent substance, the absorbent material is injected with a 1% aqueous solution of the colchicine drug. Note that this is 10× higher concentration than normal treatments. A plastic surround is used to enclose the bud, to keep it moist but exposed to the drug. This treatment is repeated twice daily for five days minimum.
In a next step, to determine whether a ploidy increase has resulted, the stomata on leaves are counted per unit area and compared to the parent. Unexpectedly, it is observed that between 10-20% of the apical buds have their ploidy level increased as a result of this process (compared with only approx 1% in normal techniques). Thus, for example, in citrus, plant leaves become shorter, thicker, wider and oil glands become more prominent.

[2] = tested on: apical buds of budded plants; settings: normal techniques (comparison; about 10x lower colchicine concentration); cited from earlier work

## COc1cc2c(c(OC)c1OC)-c1ccc(OC)c(=O)cc1[C@@H](NC(C)=O)CC2 [colchicine]
[1]; 1% aqueous solution of colchicine injected into absorbent wrap around bud at break of dormancy
  apical buds having their ploidy level increased: 10-20%
[1]; 1% aqueous solution of colchicine
  effect on original growing point (main bud): generally killed
[2]
  apical buds having their ploidy level increased: approx 1%
